Data set [1] is described as follows: in vitro. Further details: species or system HB2, CCD841. The following applies: human, hek293 cells.
Data set [2] is described as follows: in vitro. More on the design: species or system CCD841, HEK293. Particulars: human, hb2 cells, read-out: HB-2 Cells Viability (%).
Data set [3] is described as follows: in vitro. Particulars: human, ccd841 cells. More on the design: species or system HB2, HEK293.
Data set [4] addresses T1, BSA (Bos taurus, UniProt P02769).
T1 construct: gene ALB
Further details: Intact protein LC/MS covalent labelling, fragments in pools of five, 200 uM each, 4 °C. The following applies: 24 h, 4 °C, pool of five; 200 µM; covalent. The procedure:
(§1) Incubations were performed at 200 μM for each compound and 2 μM of protein (10 μM for BSA) for 24 h at 4 °C with moderate shaking. Incubation buffers varied among proteins (PBS pH 7.4 for QSOX1 and BSA; 10 mM HEPES pH 7.5, 0.3 M NaCl, 0.5 mM TCEP for PCAF, UPS8, and NUDT7; […]; 10 mM Na2HPO4 pH 7.5 100 mM NaCl 5 mM β-mercaptoethanol for NV3CP; 20 mM Na phosphate pH 7.5 for NNMT; […]. The reaction was stopped by quenching with formic acid, 0.4% final concentration. Each protein was incubated with the electrophilic library in pools of five compounds per well. The pool’s composition maximized the difference in mass between fragments in the same well. Incubations were performed with each fragment at 200 μM, for 24 h at 4 °C, to allow the screening of proteins that are not stable for long time periods at higher temperatures. Following incubation, we used intact protein [compound left out] chromatography/mass spectrometry (LC/MS) to identify the fragments and quantify their labeling (Figure 3A). […] There was good agreement between the percent of labeling of NUDT7 by 100 random individual compounds and that obtained in pools of five (R^2=0.78; Figure S6 and Data set 2 in the Supporting Information).

The target in data set [5] is T2, PCAF (Homo sapiens, UniProt Q92831).
T2 construct: gene KAT2B
More on the design: Intact protein LC/MS covalent labelling, fragments in pools of five, 200 uM each, 4 °C. Particulars: 24 h, 4 °C, pool of five; 200 µM; covalent. The protocol: as §1

In data set [6] the target is T3, OTUB2 (OTUB2A) (Homo sapiens, UniProt Q96DC9).
T3 construct: full length residues 1-234, E. coli BL21(DE3)-R3, His tag removed by TEV, construct 27312 Da
T3 sequence (Q96DC9 1-234): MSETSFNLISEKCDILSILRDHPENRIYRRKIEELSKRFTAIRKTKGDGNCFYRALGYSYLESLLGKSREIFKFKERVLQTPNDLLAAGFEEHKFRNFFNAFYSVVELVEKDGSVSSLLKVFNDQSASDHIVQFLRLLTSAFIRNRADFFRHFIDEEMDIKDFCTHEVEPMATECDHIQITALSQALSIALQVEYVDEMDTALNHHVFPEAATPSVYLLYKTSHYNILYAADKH
Further details: Intact protein LC/MS covalent labelling, fragments in pools of five, 200 uM each, 4 °C. The following applies: 24 h, 4 °C, pool of five; 200 µM; covalent. The protocol:
as §1

The target of data set [7] is T4, NUDT7 (Homo sapiens, UniProt P0C024).
T4 construct: residues 14-235, E. coli, pNIC28-Bsa4, N-terminal His6 tag removed by TEV, construct 26672 Da
Further details: Intact protein LC/MS covalent labelling, fragments in pools of five, 200 uM each, 4 °C. Particulars: 24 h, 4 °C, pool of five; 200 µM; covalent. The procedure:
as §1

Like-named read-outs stand apart in the source and are kept apart here.

T1 sequence (P02769 whole entry): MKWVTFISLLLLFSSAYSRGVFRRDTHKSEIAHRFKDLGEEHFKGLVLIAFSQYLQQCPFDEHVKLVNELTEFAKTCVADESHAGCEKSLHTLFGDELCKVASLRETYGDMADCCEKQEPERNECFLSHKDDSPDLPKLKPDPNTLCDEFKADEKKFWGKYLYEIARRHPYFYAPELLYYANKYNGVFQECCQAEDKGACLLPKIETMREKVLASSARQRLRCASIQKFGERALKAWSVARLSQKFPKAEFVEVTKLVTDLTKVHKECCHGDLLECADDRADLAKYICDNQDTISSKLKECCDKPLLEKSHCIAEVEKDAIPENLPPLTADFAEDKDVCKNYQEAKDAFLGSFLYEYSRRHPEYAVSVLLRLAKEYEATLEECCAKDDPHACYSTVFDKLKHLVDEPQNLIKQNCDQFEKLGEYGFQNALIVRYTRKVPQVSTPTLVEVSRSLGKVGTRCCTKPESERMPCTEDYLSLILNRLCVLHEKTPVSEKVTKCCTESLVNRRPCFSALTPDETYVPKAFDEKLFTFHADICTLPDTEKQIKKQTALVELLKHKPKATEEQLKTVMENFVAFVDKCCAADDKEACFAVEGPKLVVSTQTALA
T2 sequence (Q92831 whole entry): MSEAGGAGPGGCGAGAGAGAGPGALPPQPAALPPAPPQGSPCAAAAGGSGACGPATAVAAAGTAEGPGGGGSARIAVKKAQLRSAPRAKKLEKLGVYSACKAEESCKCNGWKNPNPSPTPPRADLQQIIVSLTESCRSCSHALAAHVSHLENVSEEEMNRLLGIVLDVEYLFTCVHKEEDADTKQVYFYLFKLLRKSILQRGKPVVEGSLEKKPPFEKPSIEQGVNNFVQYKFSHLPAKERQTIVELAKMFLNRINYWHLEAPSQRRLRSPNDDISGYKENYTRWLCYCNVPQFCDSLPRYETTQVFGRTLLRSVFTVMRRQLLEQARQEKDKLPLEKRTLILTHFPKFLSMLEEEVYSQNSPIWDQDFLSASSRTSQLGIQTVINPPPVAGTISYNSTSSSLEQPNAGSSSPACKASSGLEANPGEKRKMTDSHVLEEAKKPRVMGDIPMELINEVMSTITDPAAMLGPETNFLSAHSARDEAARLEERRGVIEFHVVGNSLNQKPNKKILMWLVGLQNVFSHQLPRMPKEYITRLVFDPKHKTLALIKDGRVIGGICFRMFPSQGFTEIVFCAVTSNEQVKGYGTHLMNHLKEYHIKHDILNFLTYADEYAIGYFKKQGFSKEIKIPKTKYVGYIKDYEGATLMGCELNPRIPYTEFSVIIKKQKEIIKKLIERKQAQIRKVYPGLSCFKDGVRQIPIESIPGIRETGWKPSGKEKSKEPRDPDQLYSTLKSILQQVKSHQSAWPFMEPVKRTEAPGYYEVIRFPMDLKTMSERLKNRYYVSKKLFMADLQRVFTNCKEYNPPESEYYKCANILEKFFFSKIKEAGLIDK
T4 sequence (P0C024 14-235): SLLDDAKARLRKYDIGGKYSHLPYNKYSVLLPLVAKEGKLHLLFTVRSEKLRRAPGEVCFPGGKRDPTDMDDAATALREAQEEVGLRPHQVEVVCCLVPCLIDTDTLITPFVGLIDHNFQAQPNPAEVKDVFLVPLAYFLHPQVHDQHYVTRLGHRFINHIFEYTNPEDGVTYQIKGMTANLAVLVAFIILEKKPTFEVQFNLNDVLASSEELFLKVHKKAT

One may read the viability as a read-out of living cells in per cent, often relative to untreated cells. In the case of `Cc1cc(SC#N)ccc1NC(=O)CCl` [PCM-0102508], the figures for the viability at 48 h, 10 µM in data set [1], in data set [2] and in data set [3] were 27.8%, 14.1% and 19.6%, respectively. This compound also gave a BSA in data set [4] of 0. Further, in data set [5], the PCAF came out at 0. This compound came in with an OTUB2 in data set [6] of 0.

Turning to `COc1cc2c(cc1OC)CN(C(=O)CCl)CC2` [PCM-0102317], in data set [4], the BSA is given as 0. Also, in data set [5], the PCAF came out at 0. For the same compound, the NUDT7 in data set [7] amounted to 0.1. In data set [6], this compound showed an OTUB2 of 0.14.

As to `O=C(CCl)N1CCC2CCCCC2C1` (centres unmarked) [PCM-0102474], the viability at 48 h, 10 µM in data set [1] was 15.3%; in data set [2] it was 24.3%; in data set [3], 54.4%. Also, the BSA in data set [4] was found to be 0. Further, in data set [5], the PCAF was found to be 0. In data set [6], this compound came in with an OTUB2 of 0.

In the case of `C=CC(=O)Nc1nc(-c2ccc(O)cc2)cs1` [PCM-0102884], the viability at 48 h, 10 µM in data set [1] was determined as 65.4%; in data set [2], 75.2%; in data set [3] it was 80%. This compound also gave a BSA in data set [4] of 0. This compound also showed a PCAF in data set [5] of 0. Further, the OTUB2 in data set [6] turned out to be 0.

`O=C(CCl)NCc1ccccc1` [PCM-0102538] showed a BSA in data set [4] of 0. Moreover, in data set [5], the PCAF amounted to 0. The compound also came in with an NUDT7 in data set [7] of 0. The compound also registered an OTUB2 in data set [6] of 0.28.

Consider `C=CC(=O)Nc1cc(C)on1` [PCM-0102805], for which the BSA in data set [4] was 0. Besides, in data set [5], the PCAF was 0. Further, the NUDT7 in data set [7] turned out to be 0. In addition, the OTUB2 in data set [6] is recorded as 0.

For `C=CC(=O)N1CCC(Cc2ccccn2)CC1` [PCM-0102473], the viability at 48 h, 10 µM in data set [1] worked out at 98.6%; in data set [2] it was 100%; in data set [3], 112%. This compound also came in with a PCAF in data set [5] of 0. Moreover, in data set [7], the NUDT7 is reported as 0. For the same compound, the OTUB2 in data set [6] is recorded as 0.

As to `C=CC(=O)Nc1ccc(OC)cc1` [PCM-0103034], the BSA in data set [4] came to 0. Besides, the PCAF in data set [5] is given as 0. Also, the NUDT7 in data set [7] was determined as 0. Besides, the OTUB2 in data set [6] amounted to 0.

`Cc1c(C#N)sc(NC(=O)CCl)c1C#N` [PCM-0102371]: the viability at 48 h, 10 µM in data set [1] stood at 87.5%; in data set [2], 94.3%; in data set [3], 102%. In data set [5], this compound yielded a PCAF of 0. This compound also gave an NUDT7 in data set [7] of 0. The OTUB2 in data set [6] was determined as 0.

Consider `C=CC(=O)Nc1ccccc1C` [PCM-0103000], for which the BSA in data set [4] amounted to 0. Further, the PCAF in data set [5] was 0. The NUDT7 in data set [7] is 0. This compound came in with an OTUB2 in data set [6] of 0.12.

Consider `C=CC(=O)Nc1ccc(F)cc1` [PCM-0102111], for which the BSA in data set [4] is reported as 0.2. Further, the PCAF in data set [5] is listed as 0. Besides, the NUDT7 in data set [7] is given as 0. The same compound displayed an OTUB2 in data set [6] of 0.

For the compound `C=CC(=O)N1CCCC(c2cnn(C)c2)C1` (centres unmarked) [PCM-0102641], the viability at 48 h, 10 µM in data set [1] is 81.4%; in data set [2], 107%; in data set [3] it was 115%. In data set [4], this compound showed a BSA of 0. This compound yielded a PCAF in data set [5] of 0. For the same compound, the OTUB2 in data set [6] is 0.

In the case of `Cc1nc(NC(=O)CCl)sc1C` [PCM-0102124], the viability at 48 h, 10 µM in data set [1] stood at 32.2%; in data set [2] it was 47.2%; in data set [3], 66.1%. For the same compound, in data set [4], the BSA came out at 0. The compound also returned a PCAF in data set [5] of 0. Moreover, the OTUB2 in data set [6] was determined as 0.

The compound `Cc1ccc(CN2CCCN(C(=O)CCl)CC2)cc1.Cl` [PCM-0103056] yielded a BSA in data set [4] of 0. The PCAF in data set [5] was found to be 0. This compound showed an NUDT7 in data set [7] of 0. The same compound displayed an OTUB2 in data set [6] of 0.

Turning to `O=C(CCl)N1CCSC1c1ccccc1F` (centres unmarked) [PCM-0102293], the BSA in data set [4] was 0. The compound further displayed a PCAF in data set [5] of 0. The NUDT7 in data set [7] amounted to 0.83. Moreover, the OTUB2 in data set [6] is 0.12.

Compound `NS(=O)(=O)c1ccc2c(c1)CCN2C(=O)CCl` [PCM-0102229] yielded a BSA in data set [4] of 0. The compound further returned a PCAF in data set [5] of 0. The compound also had an NUDT7 in data set [7] of 0. In addition, the OTUB2 in data set [6] came out at 0.21.

Consider `C=CC(=O)N1CCCC(Cn2ccnn2)C1` (centres unmarked) [PCM-0102647], for which the viability at 48 h, 10 µM in data set [1] stood at 102%; in data set [2] it was 101%; in data set [3], 102%. In addition, the BSA in data set [4] worked out at 0. Besides, the PCAF in data set [5] is given as 0. The same compound had an OTUB2 in data set [6] of 0.09.

In turn, `C=CC(=O)N1CCc2ncsc2C1` [PCM-0102847] yielded a BSA in data set [4] of 0. The same compound gave a PCAF in data set [5] of 0. In data set [7], the NUDT7 was 0. Moreover, the OTUB2 in data set [6] came to 0.

In turn, `CN(C(=O)CCl)c1ccccc1` [PCM-0102368] registered a BSA in data set [4] of 0. Besides, the PCAF in data set [5] worked out at 0. In data set [7], the NUDT7 was 0. For the same compound, the OTUB2 in data set [6] stood at 0.

On to `O=C(CCl)N(C1CC1)C1CCCc2ccccc21` (centres unmarked) [PCM-0102774], for which the viability at 48 h, 10 µM in data set [1] is 4%; in data set [2], 5.8%; in data set [3] it was 5.8%. This compound showed a BSA in data set [4] of 0. In data set [5], this compound gave a PCAF of 0. This compound also registered an OTUB2 in data set [6] of 0.

`C=CC(=O)NCc1ccc2cnn(C)c2c1` [PCM-0102947]: the BSA in data set [4] was determined as 0. The PCAF in data set [5] stood at 0. The compound also had an NUDT7 in data set [7] of 0. In addition, the OTUB2 in data set [6] came to 0.

On to `O=C(CCl)NCC#Cc1ccccc1` [PCM-0103007], for which the viability at 48 h, 10 µM in data set [1] turned out to be 59.4%; in data set [2], 78.1%; in data set [3] it was 84.1%. The same compound showed a BSA in data set [4] of 0. Besides, the PCAF in data set [5] came to 0. Also, the OTUB2 in data set [6] is listed as 0.6.

As to `O=C(CCl)NC1CCC2(CC1)OCCO2` [PCM-0102820], the viability at 48 h, 10 µM in data set [1] worked out at 111%; in data set [2] it was 107%; in data set [3], 96.8%. In data set [4], the BSA is listed as 0. This compound came in with a PCAF in data set [5] of 0. The same compound gave an OTUB2 in data set [6] of 0.13.

The compound `O=C(CCl)N1c2ccccc2NC(=O)C12CCCC2` [PCM-0102159] yielded a BSA in data set [4] of 0. The same compound came in with a PCAF in data set [5] of 0. In data set [7], this compound returned an NUDT7 of 0.18. The compound further had an OTUB2 in data set [6] of 0.

On to `O=C(CCl)N1N=C(c2ccco2)CC1c1cccs1` (centres unmarked) [PCM-0102182], for which the values for the viability at 48 h, 10 µM in data set [1], in data set [2] and in data set [3] were 2%, 14.9% and 18.2%, respectively. This compound also had a BSA in data set [4] of 0. Further, the PCAF in data set [5] is given as 0. The same compound gave an OTUB2 in data set [6] of 0.

In data set [4], `Cc1ccccc1CN1CCCN(C(=O)CCl)CC1.Cl` [PCM-0102911] had a BSA of 0. Moreover, the PCAF in data set [5] came out at 0. In addition, in data set [7], the NUDT7 amounted to 0. Also, the OTUB2 in data set [6] amounted to 0.

Regarding `CN(Cc1cccc(Cl)c1)C(=O)CCl` [PCM-0102976], the viability at 48 h, 10 µM in data set [1] worked out at 31.2%; in data set [2], 18.9%; in data set [3] it was 67.9%. Further, the BSA in data set [4] is listed as 0. For the same compound, in data set [5], the PCAF is listed as 0. For the same compound, the OTUB2 in data set [6] is reported as 0.

The record behind these values is PMC6556873, “Rapid Covalent-Probe Discovery by Electrophile-Fragment Screening” (Journal of the American Chemical Society, 2019).
